Consider 14 molecules from PubChem BioAssay (NCI).

What all share (experiment): NCI-60 cell line screen, 48 h
Test [1] concerns NCI/ADR-RES ovarian.
In test [2] the test system is KM12 colon.
The subject of test [3] is MDA-MB-435.
In test [4] the test system is COLO 205 colon.
For test [5], the system named is SF-295 CNS.
Test [6] concerns SK-MEL-5 melanoma.
Test [7] concerns PC-3 prostate.

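Step 1: Grow cells in 96-well plates. Step 2: Expose to compound for 48 hours at 5 concentrations. Step 3: Interpolate endpoints linearly; if unreached, use highest concentration. GI50 = concentration required for 50% inhibition of growth. At the TGI there is no net growth.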

Consider `O=C(Cc1ccccc1)NN1C(=O)/C(=C\c2ccccc2O)SC1=Nc1ccccc1`, for which the TGI in test [1], in test [2], in test [3], in test [4], in test [5] and in test [6] was greater than 100 µM throughout.

For the molecule `Cc1cc2nc3c4ccc(Br)cc4n(CCN(C)C)c3nc2cc1C`, the GI50 was 609 nM in test [1]; 1540 nM in test [2]; 1.68 µM in test [3]; 1510 nM in test [7]; 804 nM in test [5]; 1720 nM in test [6]. The TGI worked out at 4.69 µM in test [1]; 4.66 µM in test [2]; 3.04 µM in test [3]; 4.22 µM in test [7]; 2.91 µM in test [5]; 3.12 µM in test [6].

As for `COc1ccc(-c2nc(C(=O)c3ccccc3)n(CC(=O)c3ccc(Cl)cc3)c2-c2ccc(OC)cc2)cc1`, the GI50 in test [1] was greater than 100000 nM; in test [2], greater than 100000 nM; in test [3], greater than 100 µM; in test [4], greater than 100000 nM; in test [7], greater than 100000 nM; in test [5], greater than 100000 nM. Moreover, the GI50 in test [6] was greater than 100000 nM. For the same molecule, the TGI in test [1], in test [2], in test [3], in test [4], in test [7] and in test [5] was greater than 100 µM each time. Besides, the TGI in test [6] is greater than 100 µM.

On to `Oc1ccc(Cl)cc1/C=N\NC(=S)N/N=C/c1cc(Cl)ccc1O`, for which the GI50 in test [1] is 2780 nM; in test [2], 2680 nM; in test [3], 3.74 µM; in test [4], 3340 nM; in test [7], 3130 nM; in test [5], 3000 nM. Further, in test [6], the GI50 is 1340 nM. For the same molecule, the TGI in test [1] was 32.8 µM; in test [2] it was 44.7 µM; in test [3] it was greater than 100 µM; in test [4], 41.6 µM; in test [7], greater than 100 µM; in test [5], greater than 100 µM. In test [6], this molecule returned a TGI of 3.88 µM.

Regarding `COc1ccc(C(=O)c2cc3c(N)c(C(=O)Nc4cccc(OC)c4)sc3nc2C)cc1`, the GI50 was 515 nM in test [1]; 568 nM in test [2]; 1000 nM in test [4]; 439 nM in test [7]; 601 nM in test [5]; 643 nM in test [6]. The TGI in test [1] was greater than 100 µM; in test [2] it was greater than 100 µM; in test [4] it was greater than 59 µM; in test [7] it was greater than 100 µM; in test [5], greater than 100 µM; in test [6], greater than 46.1 µM.

In the case of `Nc1c(C(=O)Nc2cccc3ccccc23)sc2nc3c(cc12)C(=O)CCC3`, the GI50 in test [1] is 225 nM; in test [2], 217 nM; in test [4], 150 nM; in test [7], 295 nM; in test [5] it was 77.9 nM; in test [6] it was 333 nM. Further, the TGI in test [2] was greater than 100 µM; in test [4] it was 0.418 µM; in test [7], greater than 48.5 µM; in test [6], 4.44 µM.

Turning to `NS(=O)(=O)c1ccc(NC(=O)c2cccc(NC3=C(Cl)C(=O)N(Cc4ccccc4)C3=O)c2)cc1`, the GI50 in test [2] is 6830 nM; in test [3], 8.63 µM; in test [4], 22600 nM; in test [7], 6570 nM; in test [5], 5590 nM; in test [6], 7870 nM. Also, the TGI in test [2] turned out to be 26.5 µM; in test [3], 24.1 µM; in test [4], 85.8 µM; in test [7] it was 29 µM; in test [5], 22.5 µM; in test [6], 24.1 µM.

For `Cc1cc(Nc2nc(-c3ccncc3)nc3ccccc23)n[nH]1`, the GI50 in test [1] was 11100 nM; in test [2], 335 nM; in test [3], 12.1 µM; in test [4], 2170 nM; in test [5], 17400 nM; in test [6], 52600 nM. For the same molecule, the TGI in test [1] was greater than 100 µM; in test [2], greater than 100 µM; in test [3] it was greater than 100 µM; in test [4] it was 6.4 µM; in test [5], greater than 100 µM; in test [6] it was greater than 100 µM.

`O=C(Nc1nc2ccccc2s1)c1cc(-c2ccc(F)cc2)n2nc(-c3ccccc3)cc2n1`: in test [5], the GI50 was 4110 nM and the TGI was greater than 100 µM.

Regarding `Cc1ccc(S(=NS(=O)(=O)c2ccc(C)cc2)c2ccc(C)cc2)cc1`, the TGI in test [1], in test [2], in test [3], in test [4], in test [7] and in test [5] was greater than 100 µM each time.

As to `CCN(CC)Cc1cc(Nc2c3ccccc3nc3cc(Cl)ccc23)ccc1O`, the GI50 in test [2] was 1590 nM; in test [3], 1.65 µM; in test [4], 1050 nM; in test [7], 1590 nM; in test [5], 1900 nM; in test [6], 1750 nM. For the same molecule, the TGI came out at 3.77 µM in test [2]; 3.34 µM in test [3]; 2.3 µM in test [4]; 3.26 µM in test [7]; 4.86 µM in test [5]; 3.16 µM in test [6].

With `Cc1cc(Br)cc(C)c1NC(=O)C(=O)Nn1c(=S)[nH]c2ccccc2c1=O`, the TGI in test [1], in test [2], in test [3], in test [7], in test [5] and in test [6] was greater than 100 µM in each case.

For `O=C(/C=C/c1ccccc1)CCC1C(=O)NC(=S)NC1=O`, the TGI in test [1], in test [3], in test [4], in test [7], in test [5] and in test [6] was greater than 100 µM in each case.

Turning to `COc1ccc2c(c1)/C(=N/OC(C)=O)c1c-2cnc2ccccc12`, the GI50 in test [1] is 36900 nM; in test [2], 25000 nM; in test [4], 26500 nM; in test [7] it was 21300 nM; in test [6], 17600 nM. Moreover, the TGI in test [1] is greater than 100 µM; in test [2], 78.7 µM; in test [4], 94.7 µM; in test [7], 48 µM; in test [6], 48.5 µM.
